Laboratory results reported in patent US10369131B2, “Ultrapure tetrahydrocannabinol-11-oic acids” (Corbus Pharmaceuticals, Inc., priority 2013, dated 2019).
“Also recorded” adds a separate entry of the source.

What was measured:
[1] = test system: female CD-1 mice; test: Ring immobility (catalepsy) test
Procedure: The cataleptic response was measured using the ring test described by Pertwee (Pertwee R G, The Ring Test. A Quantitative Method of Assessing the Cataleptic Effect of Cannabis in Mice, Br. J. Pharmacol. 46:753-763 (1972)). Mice were placed on a horizontal wire ring 5.5 cm in diameter attached to a 16 cm vertical rod. The hind paws and fore paws were placed at opposite sides of the ring. The ambient temperature was maintained at 30° C. and the environment was free of auditory stimuli and bright lights. The response was calculated as the fraction of time the mouse was immobile over a five (5) minute test period.
A dose response was conducted for ultrapure AJA to oral doses of 0.05 to 56 mg/kg.
(§1) Compounds were administered at a volume of […] via oral gavage.
(§2) Female CD-1 mice (20-25 g), obtained from Charles River (Raleigh, N.C.), were used for assessment in hot plate nociception, rectal temperature, and ring immobility assays. Separate mice were used for testing each dose of each compound in this battery of procedures. The mice had free access to food and water when in their home cages. All animals were kept in a temperature-controlled (20-22° C.) environment with a 12-hour light-dark cycle (lights on at 7 a.m.).
Each mouse was tested in a battery of three tests, in which cannabinoid CB1 agonists produce in vivo effects in mice (Martin et al., 1991): antinociception (hot plate assay), decreased rectal temperature and ring immobility. Prior to administration of the test compound, rectal temperature and baseline latency in the hot plate test were measured in the mice. The latter procedure involved placing the mouse on a heated surface (mouse cold/hot plate analgesia apparatus; Stoelting, Wood Dale, Ill.) at a setting of 55° C. Time until the mouse lifts or licks a paw was measured, whereupon the mouse was removed from the apparatus. […] After measurement of baseline temperature and hot plate latency, mice were administered vehicle or drug via oral gavage. […] Subsequently, the mice were placed on a 5.5 cm ring attached at a height of 16 cm to a ring stand, and the amount of time the animals remained motionless during a 5 min period was recorded. In addition, the number of times the mouse fell or jumped off the ring was recorded. If the mouse fell off the ring more than 5 times, the test was terminated.
Rectal temperature values were expressed as the difference between control temperature (before injection) and temperature following drug administration (Δ° C.). Antinociception was expressed as the percent maximum possible effect (MPE) using a 30-s maximum test latency as follows: [(test−control)/(30−control)]×100. During assessment for catalepsy, the total amount of time (in seconds) that the mouse remained motionless on the ring apparatus (except for breathing and whisker movement) was measured and was used as an indication of catalepsy-like behavior. This value was divided by 300 s and multiplied by 100 to obtain a percent immobility. If the mouse fell off the ring more than 5 times, the test was terminated and ring immobility data for the mouse were not included in analysis. Separate between-subjects ANOVAs were used to analyze each measure. Significant differences from control (vehicle) were further analyzed with Tukey post hoc tests (α=0.05) as necessary.

[2] = test system: female CD-1 mice; test: Rectal temperature (mouse hypothermia assay); conditions: oral 0.05-56 mg/kg, 90 min after administration
Procedure: as §1, §2
Each mouse was tested in a battery of three tests, in which cannabinoid CB1 agonists produce in vivo effects in mice (Martin et al., 1991): antinociception (hot plate assay), decreased rectal temperature and ring immobility. Prior to administration of the test compound, rectal temperature and baseline latency in the hot plate test were measured in the mice. The latter procedure involved placing the mouse on a heated surface (mouse cold/hot plate analgesia apparatus; Stoelting, Wood Dale, Ill.) at a setting of 55° C. Time until the mouse lifts or licks a paw was measured, whereupon the mouse was removed from the apparatus. […] Subsequently, the mice were placed on a 5.5 cm ring attached at a height of 16 cm to a ring stand, and the amount of time the animals remained motionless during a 5 min period was recorded. In addition, the number of times the mouse fell or jumped off the ring was recorded. […]
Rectal temperature values were expressed as the difference between control temperature (before injection) and temperature following drug administration (Δ° C.). Antinociception was expressed as the percent maximum possible effect (MPE) using a 30-s maximum test latency as follows: [(test−control)/(30−control)]×100. During assessment for catalepsy, the total amount of time (in seconds) that the mouse remained motionless on the ring apparatus (except for breathing and whisker movement) was measured and was used as an indication of catalepsy-like behavior. […]

[3] = test system: CD-1 mice, arachidonic acid induced paw edema; test: Arachidonic acid induced paw edema model; assay type: in vivo, mouse; conditions: oral 5, 50 and 500 ug/kg, 90 min before arachidonic acid, paw volume 45 min after injection
Procedure: CD-1 Mice (Female) were randomly allocated to experimental groups and allowed to acclimatise for one week. Prior to test compound administration, baseline right hind paw volume was measured under gas (isoflurane) anaesthesia using a water displacement device (plethysmometer, Stoelting). On Day 0, ultrapure AJA suspended in 2% MC or vehicle was administered at 0, 5, 50 and 500 ug/kg by oral gavage. Ninety minutes after treatment administration, the animals were given 10 microliters of a 100 mg/ml arachidonic acid solution in 5% ethanol by subcutaneous injection into the plantar aspect of the right hind paw. A control group of animals (Group 1) was administered with an equivalent volume of a 5% ethanol solution. The left hind paws were not injected. Intra-plantar injections were performed under gas anaesthesia. 45 minutes after the intra-plantar injections right hind paw volume was measured under gas anaesthesia using a plethysmometer.

[4] = biological target: CB1 receptor (Homo sapiens, UniProt P21554); test: CB receptor radioligand binding assay, human CB1; parameters: expressed in transfected cells; host or cells: HEK-293T
Procedure: Membrane preparation—HEK-293T cells were cultured according to ATCC (Manassas, Va.) guidelines and transfected with human CB1 cDNA (Genbank X54937) or CB2 cDNA (Genbank X74328), operably linked to the SV40 promoter, using Polyfect (Qiagen, Valencia, Calif.) or Fugene (Roche, Nutley, N.J.) according to manufacturer's instructions. 48 h after transfection, cells were harvested in ice cold membrane buffer (20 mM HEPES, 6 mM MgCl2, 1 mM EDTA, pH 7.2) using a cell scraper. Cells were transferred to a nitrogen cavitation chamber and a pressure of […] was applied for 30 min. The pressure was released and the cell debris was collected and centrifuged at 1000 g at 4° C. for 10 min. The supernatant was collected and the spin was repeated until the supernatant was free of precipitate. […] The membrane concentration was determined using a BioRad (Hercules, Calif.) protein assay dye reagent according to manufacturer's instructions. […]
Membranes were incubated for 2 hr at room temperature, then filtered onto a presoaked (with 0.1% polyethylenimine for 1 to 2 hr) 96 well GF/B filterplate (Packard Bioscience, Shelton, Conn.) and washed with […] ice cold wash buffer (25 mM HEPES, 1 mM CaCl2, 5 mM MgCl2, 0.25M NaCl) using a Filtermate 196 Harvester (Packard Instruments, Downers Grove, Ill.). […] Plates were counted on a Topcount NXT (Packard, Shelton, Conn.). […]

CB1 receptor, sequence (P21554 whole entry): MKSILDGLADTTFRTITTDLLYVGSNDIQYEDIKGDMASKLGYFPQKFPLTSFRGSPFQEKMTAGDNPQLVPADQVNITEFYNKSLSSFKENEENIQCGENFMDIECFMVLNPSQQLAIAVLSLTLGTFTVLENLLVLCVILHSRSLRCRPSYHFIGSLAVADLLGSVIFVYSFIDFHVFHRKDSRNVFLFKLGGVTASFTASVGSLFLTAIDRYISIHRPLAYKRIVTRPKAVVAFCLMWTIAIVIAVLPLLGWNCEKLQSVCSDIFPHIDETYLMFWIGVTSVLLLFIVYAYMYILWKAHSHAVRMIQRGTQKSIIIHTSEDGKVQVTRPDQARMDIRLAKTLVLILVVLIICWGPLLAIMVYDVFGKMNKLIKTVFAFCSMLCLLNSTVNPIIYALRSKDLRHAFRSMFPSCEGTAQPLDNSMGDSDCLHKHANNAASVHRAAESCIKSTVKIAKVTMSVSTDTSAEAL

CCCCCCC(C)(C)c1cc(O)c2c(c1)OC(C)(C)[C@@H]1CC=C(C(=O)O)C[C@@H]21 [JBT-101, (6aR,10aR)-3-(1′,1′-dimethylheptyl)-Δ8-tetrahydro-cannabinol-9-carboxylic acid]
doses required to see catalepsy compared with AJA (3a) from U.S. Pat. No. 5,338,753 ([1]; dose response 0.05 to 56 mg/kg oral): required much higher doses
percent ring immobility in the catalepsy test ([1]; lower oral doses, up to 10 mg/kg): did not affect this measure
percent ring immobility in the catalepsy test ([1]; oral 30 and 56 mg/kg, vs vehicle, p<0.05): significantly increased percent ring immobility
doses at which active in the ring test ([1]; oral in oil, FIG. 14): ≥ 30 mg/kg
change in rectal temperature (hypothermia) [2]: None of the doses tested produced significant; also recorded: inactive
inhibition of paw volume / inflammation [3]: effective at doses well below the doses in which CB1 activity is observed
inhibition of paw volume / inflammation ([3]; listed as ultrapure AJA): effective at all doses tested
Ki [4]: 0.628 ± 0.006 µM
